Patent US20230071763A1, “AURISTATIN-RELATED COMPOUNDS, CONJUGATED AURISTATIN-RELATED COMPOUNDS, AND METHODS OF USE THEREOF” (CYTOMX THERAPEUTICS, INC., priority 2020, published 2023)

Tests used:
human CES-1C = target: T1, human CES-1C (Homo sapiens, UniProt P23141); test: Stability to carboxylesterase, human CES-1C; format: in vitro ADME; conditions: 37° C., in 48 hrs
T1 sequence (P23141 18-566 isoform P23141-3 limits assumed): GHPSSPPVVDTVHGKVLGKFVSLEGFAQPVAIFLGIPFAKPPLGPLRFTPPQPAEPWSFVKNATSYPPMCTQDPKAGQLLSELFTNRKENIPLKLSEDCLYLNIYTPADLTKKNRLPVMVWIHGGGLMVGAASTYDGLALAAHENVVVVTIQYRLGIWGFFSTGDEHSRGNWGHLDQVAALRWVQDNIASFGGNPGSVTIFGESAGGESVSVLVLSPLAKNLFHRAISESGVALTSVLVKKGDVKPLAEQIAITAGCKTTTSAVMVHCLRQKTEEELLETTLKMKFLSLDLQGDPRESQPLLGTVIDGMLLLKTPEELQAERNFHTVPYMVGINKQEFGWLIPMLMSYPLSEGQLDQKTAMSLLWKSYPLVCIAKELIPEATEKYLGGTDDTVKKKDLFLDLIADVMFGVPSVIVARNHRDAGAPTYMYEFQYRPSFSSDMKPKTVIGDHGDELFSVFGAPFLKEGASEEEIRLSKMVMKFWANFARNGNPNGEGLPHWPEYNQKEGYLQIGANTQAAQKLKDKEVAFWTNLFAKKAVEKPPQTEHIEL
Method: (§1) In a further exemplary study, the stability of the substrates were determined in the presence of […] different carboxylesterases (human or mouse CES-1 and CES-1C). In this study, the enzymes were activated prior to substrate introduction and then incubated with the substrate at 37° C. over a 48 h time period.

mouse CES-1C = target: T2, mouse CES-1C (Mus musculus, UniProt P23953); test: Stability to carboxylesterase, mouse CES-1C; format: in vitro ADME; conditions: 37° C., in 48 hrs
T2 sequence (P23953 19-554): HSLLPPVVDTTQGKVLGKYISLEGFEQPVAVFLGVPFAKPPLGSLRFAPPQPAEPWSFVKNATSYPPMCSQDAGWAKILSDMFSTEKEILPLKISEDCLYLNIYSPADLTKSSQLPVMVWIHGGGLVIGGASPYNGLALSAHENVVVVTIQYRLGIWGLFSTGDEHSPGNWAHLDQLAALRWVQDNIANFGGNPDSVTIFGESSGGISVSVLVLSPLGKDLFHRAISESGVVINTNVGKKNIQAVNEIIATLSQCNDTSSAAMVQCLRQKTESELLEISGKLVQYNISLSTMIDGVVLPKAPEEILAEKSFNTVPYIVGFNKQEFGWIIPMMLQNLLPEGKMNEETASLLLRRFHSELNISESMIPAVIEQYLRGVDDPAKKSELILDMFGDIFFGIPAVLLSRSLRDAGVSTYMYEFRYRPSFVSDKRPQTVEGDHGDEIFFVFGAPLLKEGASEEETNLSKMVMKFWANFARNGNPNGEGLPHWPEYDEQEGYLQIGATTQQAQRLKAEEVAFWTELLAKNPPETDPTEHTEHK
Method: as §1

tubulin = test: Binding to tubulin
SW780 cells = test: In vitro cytotoxicity (Presto Blue), SW780; format: cell-based; conditions: 5 days treatment, percent survival
Method: (§2) In this assay, the test cells were plated and grown to an appropriate cell density (e.g., 1500 cells/well (50 μL per well) for SW780 cells). The cells were treated with the drug (MMATH or MMAE (monomethylauristatin E)) at concentrations ranging from 10 μM to 10^−4 nM in triplicate for 5 days. On the day 6 endpoint, the cells were incubated with 20 μL of Presto Blue @ 37 C for 2 hr and the signal was read on a Biotek synergy H4 plate reader. After media background was subtracted, the percent survival was calculated and plotted to determine the EC50, as shown in the exemplary results of Table 1.

HCC1954 = test: In vitro cytotoxicity (Presto Blue), HCC1954; format: cell-based; conditions: 5 days treatment, percent survival
Method: as §2

PC3 = test: In vitro cytotoxicity (Presto Blue), PC3; format: cell-based; conditions: 5 days treatment, percent survival
Method: as §2

SKOV3 = test: In vitro cytotoxicity (Presto Blue), SKOV3; format: cell-based; conditions: 5 days treatment, percent survival
Method: as §2

SMILES | cleavage by human CES-1C (human CES-1C) | cleavage by mouse CES-1C (mouse CES-1C) | Kd (tubulin) [nM] | EC50 (SW780 cells; first SW780 column) [nM] | EC50 (SW780 cells; second SW780 column) [nM] | EC50 (HCC1954) [nM] | EC50 (PC3) [nM] | EC50 (SKOV3) [nM] | EC50 (SW780 cells; Homo sapiens, SW780, 120 h, first SW780 column) [nM] | EC50 (SW780 cells; Homo sapiens, SW780, 120 h, second SW780 column) [nM] | EC50 (HCC1954; Homo sapiens, HCC1954, 120 h) [nM] | EC50 (PC3; Homo sapiens, PC-3, 120 h) [nM] | EC50 (SKOV3; Homo sapiens, SK-OV-3, 120 h) [nM]
CC[C@H](C)C([C@@H](CC(=O)N1CCC[C@H]1[C@H](OC)[C@@H](C)C(=O)N[C@H](C)[C@@H](O)c1ccccc1)OC)N(C)C(=O)[C@@H](NC(=O)[C@@H](NC)C(C)C)C(C)C (some centres unmarked) [Cys-vc-MMAE] | completely cleaved | completely cleaved |  |  |  |  |  |  |  |  |  |  | 
CC[C@H](C)[C@@H]([C@@H](CC(=O)N1CCC[C@H]1[C@H](OC)[C@@H](C)C(=O)N[C@H](C)[C@@H](O)c1ccccc1)OC)N(C)C(=O)[C@@H](NC(=O)[C@@H](NC)C(C)C)C(C)C [MMAE, monomethylauristatin E] |  |  | 69.9 | 0.31 | 0.22 | 0.03 | 0.24 | 0.19 |  |  |  |  | 
CCC(C)C(C(CC(=O)N1CCCC1C(OC)C(C)C(=O)NC(CO)Cc1cccs1)OC)N(C)C(=O)C(NC(=O)C(NC)C(C)C)C(C)C (centres unmarked) [MMATH] |  |  | 204 |  |  |  |  |  | 0.38 | 0.26 | 0.03 | 0.24 | 0.2
